Reference: patent US6444806B1, “Conjugates and methods of forming conjugates of oligonucleotides and carbohydrates” (Hisamitsu Pharmaceutical Co., Inc., priority 1996, dated 2002)
{Sucrose} = sucrose through a 1,5-bis(succinimidooxycarbonyloxy)pentane crosslinker

Columns and labels:
Exonuclease-1 = molecular target: T1, Exonuclease-1 (Escherichia coli, UniProt P04995); assay type: in vitro ADME; details: 0.5 or 1.0 unit Exonuclease-1, 30 minutes at 37° C., gel autoradiography (FIG. 3)
T1 sequence (P04995 1-475): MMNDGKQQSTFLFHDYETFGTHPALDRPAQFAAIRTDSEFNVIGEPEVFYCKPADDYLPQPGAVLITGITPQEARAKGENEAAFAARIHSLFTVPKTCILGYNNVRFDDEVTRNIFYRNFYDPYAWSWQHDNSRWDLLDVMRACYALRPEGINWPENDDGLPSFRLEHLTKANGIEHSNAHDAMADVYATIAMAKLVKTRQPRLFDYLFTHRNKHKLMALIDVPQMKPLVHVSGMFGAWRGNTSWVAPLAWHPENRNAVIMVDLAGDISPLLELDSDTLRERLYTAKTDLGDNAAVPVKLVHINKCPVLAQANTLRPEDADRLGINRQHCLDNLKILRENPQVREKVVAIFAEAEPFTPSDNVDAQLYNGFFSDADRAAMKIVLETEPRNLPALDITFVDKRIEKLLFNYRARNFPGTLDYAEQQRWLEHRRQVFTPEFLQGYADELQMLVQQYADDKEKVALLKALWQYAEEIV
Description: (§1) Electrophoresis was performed using 20% polyacrylamide gels containing […], 90 mM Tris-borate (pH 8.3), 2 mM EDTA, 0.02% ammonium persulfate, and 15 μl tetraethylediamine (TEMED). Samples were dissolved in gel-loading buffer (10 M urea, 1.5 mM EDTA, 0.05% xylene cyanol, and 0.05% bromophenol blue) and heated at 90° C. for 1 minute and chilled before application to polyacrylamide gels.
Radiolabeled oligonucleotide (30,000 CPM) was incubated with either 0.5 or 1.0 unit of Exonuclease-1 in 67 mM glycine (pH 9.5), 10 mM 2-mercaptoethanol, and 6.7 mM MgCl2 in 20 μl for 30 minutes at 37° C. After incubation, 5 μl of gel-loading buffer were added. All reactions were analyzed by polyacrylamide gel electrophoresis followed by autoradiography of the wet gel at −70° C.

[1] = Nuclease degradation assay in heat-inactivated 10% fetal bovine serum; assay type: in vitro ADME; details: phosphodiester oligonucleotides, up to 24 hours at 37° C. (FIG. 4)
Description: as §1
Radiolabeled oligonucleotide (30,000 CPM) was incubated in RPMI-1640 medium (GIBCO-BRL, Grand Island, N.Y.) containing 10% heat-inactivated fetal bovine serum at 37° C. Samples were removed at various times, mixed with gel-loading buffer, and frozen at −20 C. Samples were analyzed by polyacrylamide gel electrophoresis followed by autoradiography of the wet gel at −70° C.

[2] = tested on: RNA complementary to the oligonucleotide; assay: RNase H assay (RNA-DNA heteroduplex formation); assay type: biochemical; details: Escherichia coli RNase H, 10 or 30 minutes, room temperature (FIG. 6)
Description: Radiolabeled oligonucleotide (30,000 CPM) was annealed to complementary RNA by incubation in 20 mM Tris-HCl (pH 7.5), 0.1 M KCl, 10 mM MgCl2, and 0.1 mM ATP in 10 μl for 5 minutes at 65° C. followed by slow cooling to room temperature. One unit of Escherichia coli RNase H was added and incubation at room temperature was continued for either 10 minutes or 30 minutes. After incubation, 5 μl of gel-loading buffer were added, and all samples were analyzed by polyacrylamide gel electrophoresis followed by autoradiography of the wet gel at −70° C.
Unconjugated and sucrose-conjugated phosphodiester and phosphorothioate oligonucleotides were tested for their ability to form stable RNA-DNA heteroduplexes by determining RNA susceptibility to degradation by RNase H. RNA complementary to the oligonucleotide was labeled at the 5′-end using γ-^32P-ATP and T4 polynucleotide kinase. Radiolabeled RNA was hybridized to either unconjugated phosphodiester, sucrose-conjugated phosphodiester, unconjugated phosphorothioate, or sucrose-conjugated phosphorothioate oligonucleotide. Heteroduplex formation was assayed by incubation with RNase H for either 10 minutes or 30 minutes.

| Substance | degradation by Exonuclease-1 (Exonuclease-1) | degradation in heat-inactivated 10% fetal bovine serum [1] | RNA susceptibility to degradation by RNase H (stable RNA-DNA heteroduplex formation) [2] |
| --- | --- | --- | --- |
| unconjugated phosphodiester oligonucleotide: phosphodiester oligonucleotide, 19 nucleotides in length, sequence of Sequence ID No. 1, unconjugated control (GCTTCTGTGCTCATGGTCT; all phosphodiester, sugars by position and methylation of C not given here) | degraded nearly completely | highly susceptible to degradation | degraded by RNase H |
| sucrose-conjugated phosphodiester oligonucleotide: 19-mer phosphodiester oligonucleotide (Sequence ID No. 1) coupled at 3′-end to sucrose via crosslinker 1,5-bis(succinimidooxycarbonyloxy)pentane (GCTTCTGTGCTCATGGTCT; all phosphodiester, 3' {Sucrose}, sugars by position and methylation of C not given here; further chemistry not fully specified) | only negligible degradation | relatively resistant to degradation | degraded by RNase H |
